Test results as given in the NIST ThermoML archive (doi:10.1021/je0502905).
Numbers after ± are expanded uncertainties.

Experiments:
[1] = Liquid; for mass density: 293.15 K, 101.33 kPa
[2] = refractive index (Na D-line) (dimensionless); details: 293.15 K; 101.33 kPa; Liquid; Standard Abbe refractometry

mass density [1] | vapor or sublimation pressure ([1]; 375.63 K) | vapor or sublimation pressure ([1]; 392.7 K) | vapor or sublimation pressure ([1]; 403.8 K) | vapor or sublimation pressure ([1]; 410.79 K) | refractive index [2] | vapor or sublimation pressure ([1]; 379.88 K) | vapor or sublimation pressure ([1]; 401.28 K) | vapor or sublimation pressure ([1]; 415.26 K) | vapor or sublimation pressure ([1]; 423.97 K) | vapor or sublimation pressure ([1]; 359.51 K) | vapor or sublimation pressure ([1]; 379.52 K) | vapor or sublimation pressure ([1]; 392.57 K) | vapor or sublimation pressure ([1]; 400.69 K) | SMILES
814.5 ± 0.8 kg/m3 | 26.66 ± 0.31 kPa | 53.33 ± 0.37 kPa | 79.99 ± 0.53 kPa | 101.32 ± 0.61 kPa | 1.4098 ± 0.0007 | – | – | – | – | – | – | – | – | CCCCCO [pentan-1-ol]
717.6 ± 0.7 kg/m3 | – | – | – | – | 1.4055 ± 0.0007 | 26.66 ± 0.25 kPa | 53.33 ± 0.3 kPa | 79.99 ± 0.42 kPa | 101.32 ± 0.49 kPa | – | – | – | – | CCCCCCCCC [nonane]
811.2 ± 0.8 kg/m3 | – | – | – | – | 1.4008 ± 0.0007 | – | – | – | – | 26.66 ± 0.27 kPa | 53.33 ± 0.32 kPa | 79.99 ± 0.45 kPa | 101.32 ± 0.53 kPa | CCCCC(C)=O [2-hexanone]
